# Data taken from patent US7175829B2, “Contrast-enhanced diagnostic imaging method for monitoring interventional therapies” (Epix Pharmaceuticals, Inc., priority 1997, dated 2007).
# Experiments:
# [1] = target: T1, human serum albumin (HSA) (Homo sapiens, UniProt P02768); assay: Relaxivity R1 at 20 MHz during thermal denaturation of 4.5% HSA solutions; type: physicochemical; conditions: for R1: 20 MHz, 4.5% HSA solution
# Protocol: (§1) In these examples, the longitudinal relaxivities (R1, mM^−1 sec^−1) were monitored and obtained at 20 MHz by determining the relaxation rate (1/T1) of water protons in phosphate buffered saline (PBS, 150 mM NaCl, 10 mM phosphate, pH=7.4), in PBS solutions containing 4.5 wt % HSA, or in gels containing 4.5 wt % HSA and 1% Agar. The dependence of temperature on relaxivity (R1) was observed by varying the temperature of the samples with a circulating water bath and monitoring sample temperature with a thermocouple.
# (§2) The following three samples were prepared in solutions of 4.5% HSA: (1) a control sample without a contrast agent; (2) a comparative sample with Gd-DTPA; and (3) a sample with MS-325. The samples with Gd-DTPA and MS-325 were prepared by adding an aqueous formulation (pH=7) comprising either Gd-DTPA or MS-325 to the 4.5% HSA solution.
# The three samples were then used to monitor the thermal denaturation of the 4.5% HSA solutions. […] Each sample was then removed from the NMR and heated at 85° C. for 15 minutes to induce thermal denaturation of the HSA. Subsequently, the sample was returned to the NMR and T1 data was collected at this higher temperature.
# [2] = target: T1, human serum albumin (HSA); assay: T1-weighted MRI at 1.0 Tesla of agar phantoms containing 4.5% HSA during thermal denaturation; type: physicochemical; conditions: 0.3 mM Gd-DTPA, 0.1 mM MS-325; for % Loss ROI: 1% agar, 4.5% HSA, 1.0 Tesla
# Protocol: The following samples were prepared in 1% agar gels containing 4.5% HSA: (1) a control sample without a contrast agent; (2) a comparative sample with Gd-DTPA; and (3) a sample with MS-325. The contrast agents were added in an amount sufficient such that the concentration of Gd-DTPA and MS-325 were 0.3 mM Gd-DTPA and 0.1 mM MS-325, respectively. Such agar gels containing 4.5% HSA are referred to as “phantoms”.
# Initial T1-weighted MRI scans (FISP-3D, TR=15, TE=4, alpha=30) at 1.0 Tesla of the agar phantoms were then obtained at a temperature of about 25° C.
# The phantoms were then heated in a circulating water bath with additional T1-weighted MRI scans obtained over time.
# [3] = target: T1, human serum albumin (HSA); assay: Relaxivity R1 at 20 MHz during ethanol denaturation of 4.5% HSA solutions; type: physicochemical; conditions: for R1 0.31 mM Gd-DTPA: 4.5% HSA, 37° C.
# Protocol: as §1, §2
# Absolute ethanol was then titrated to each of the samples. T1 data (and thus R1 data (=1/T1)) was collected at 20 MHz and 37° C. after each addition of ethanol.
# [4] = Rat plasma pharmacokinetic experiment (blood retention, AUC-conc.); type: in vivo; conditions: two rats, tail vein injection of 0.1 mmol/kg Gd^153-labeled Gd-DTPA
# Source text: The incorporation into a contrast agent of this invention of a BHEM results in prolonged blood retention of the agent. […] Blood retention (as measured by AUC-conc) can be evaluated experimentally by administration of a contrast agent to rats, rabbits, or higher mammals. It has been observed that blood half-life extension is greater in rabbits and higher mammals than in rats. In this application, blood half-life data, as measured by AUC-conc., represents experimentation in rats.
# For example, the average plasma concentrations observed after tail vein injection of 0.1 mmol/kg of Gd^153-labeled Gd-DTPA in two rats is shown in FIG. 1.
# [5] = test system: alpha 1-acid glycoprotein (AAG); conditions: binding to alpha 1-acid glycoprotein; cited from earlier work
# T1 sequence (P02768 25-609): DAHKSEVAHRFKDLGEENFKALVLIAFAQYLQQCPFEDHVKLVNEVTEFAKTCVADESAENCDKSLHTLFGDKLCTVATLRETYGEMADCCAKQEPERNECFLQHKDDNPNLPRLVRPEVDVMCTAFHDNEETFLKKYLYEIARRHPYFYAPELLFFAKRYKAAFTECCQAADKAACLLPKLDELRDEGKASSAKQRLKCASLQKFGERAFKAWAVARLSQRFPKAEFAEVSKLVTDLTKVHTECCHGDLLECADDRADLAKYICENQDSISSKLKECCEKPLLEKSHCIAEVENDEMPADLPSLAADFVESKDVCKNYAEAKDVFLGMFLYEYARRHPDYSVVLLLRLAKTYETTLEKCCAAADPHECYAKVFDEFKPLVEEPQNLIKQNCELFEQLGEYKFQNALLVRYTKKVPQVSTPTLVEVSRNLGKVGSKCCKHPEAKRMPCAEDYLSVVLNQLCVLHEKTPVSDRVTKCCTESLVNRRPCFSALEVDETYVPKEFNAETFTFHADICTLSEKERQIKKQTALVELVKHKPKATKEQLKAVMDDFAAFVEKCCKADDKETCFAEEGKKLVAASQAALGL
smiles,measurement,setting,value
"O=C([O-])CN(CCN(CC(=O)[O-])CC(=O)O)CCN(CC(=O)[O-])CC(=O)O.[Gd+3] [Gd-DTPA, reference compound]",R1,"[1]; 7.3 °C, 0.3 mM Gd-DTPA, 0.1 mM MS-325",9.4556 mM⁻¹ s⁻¹
same,R1,"[1]; 11.7 °C, 0.3 mM Gd-DTPA, 0.1 mM MS-325",8.8125 mM⁻¹ s⁻¹
same,R1,"[1]; 16.2 °C, 0.3 mM Gd-DTPA, 0.1 mM MS-325",8.0690 mM⁻¹ s⁻¹
same,R1,"[1]; 20.6 °C, 0.3 mM Gd-DTPA, 0.1 mM MS-325",7.4182 mM⁻¹ s⁻¹
same,R1,"[1]; 25.0 °C, 0.3 mM Gd-DTPA, 0.1 mM MS-325",6.7426 mM⁻¹ s⁻¹
same,R1,"[1]; 29.5 °C, 0.3 mM Gd-DTPA, 0.1 mM MS-325",6.2117 mM⁻¹ s⁻¹
same,R1,"[1]; 33.9 °C, 0.3 mM Gd-DTPA, 0.1 mM MS-325",5.7089 mM⁻¹ s⁻¹
same,R1,"[1]; 38.4 °C, 0.3 mM Gd-DTPA, 0.1 mM MS-325",5.2984 mM⁻¹ s⁻¹
same,R1,"[1]; 42.8 °C, 0.3 mM Gd-DTPA, 0.1 mM MS-325",4.8917 mM⁻¹ s⁻¹
same,R1,"[1]; 47.3 °C, 0.3 mM Gd-DTPA, 0.1 mM MS-325",4.5992 mM⁻¹ s⁻¹
same,R1,"[1]; 51.7 °C, 0.3 mM Gd-DTPA, 0.1 mM MS-325",4.3083 mM⁻¹ s⁻¹
same,R1,"[1]; 56.2 °C, 0.3 mM Gd-DTPA, 0.1 mM MS-325",4.0592 mM⁻¹ s⁻¹
same,R1,"[1]; 60.6 °C, 0.3 mM Gd-DTPA, 0.1 mM MS-325",3.8806 mM⁻¹ s⁻¹
same,R1,"[1]; 85.0 °C, after heating at 85° C. for 15 minutes (HSA denatured), 0.3 mM Gd-DTPA, 0.1 mM MS-325",4.2102 mM⁻¹ s⁻¹
same,net loss in R1 after denatured samples cooled to physiological temperature,"[1]; denatured samples cooled to 37° C., 0.3 mM Gd-DTPA, 0.1 mM MS-325",0.5 mM^−1 sec^−1
same,loss in observed R1 during denaturation of the HSA,"[1]; from immediately before denaturation (56.2° C.) to immediately after denaturation (85° C.), 0.3 mM Gd-DTPA, 0.1 mM MS-325",0.1 mM⁻¹ s⁻¹
same,binding to native or denatured HSA,[1]; inferred from R1 change during thermal denaturation,does not bind to either native or denatured HSA
same,% Loss ROI,"[2]; 0 min, 25.3 °C",−0.2456%
same,% Loss ROI,"[2]; 10 min, 29.6 °C",−5.1875%
same,% Loss ROI,"[2]; 20 min, 38.3 °C",−12.806%
same,% Loss ROI,"[2]; 30 min, 45.0 °C",−18.985%
same,% Loss ROI,"[2]; 40 min, 53.0 °C",−30.964%
same,% Loss ROI,"[2]; 50 min, 64.7 °C",−43.833%
same,% Loss ROI,"[2]; 60 min, 72.8 °C",−46.086%
same,% Loss ROI,"[2]; 70 min, 87.1 °C",−47.529%
same,% Loss ROI,"[2]; 120 min, 35.5 °C (cooled after denaturation)",−10.190%
same,loss in signal intensity after denaturation and cooling,[2]; denatured phantoms cooled to 37° C.,10%
same,loss of signal intensity on thermal denaturation,[2]; phantoms heated above 50–60° C.,only a modest change
same,decrease/change in observed relaxivity during ethanol ablation,"[3]; 4.5% HSA solutions, 0.31 mM Gd-DTPA, 0.08 mM MS-325, 37° C.",0.3 mM⁻¹ s⁻¹
same,R1 0.31 mM Gd-DTPA,[3]; ethanol 0.0 %,4.1737 mM⁻¹ s⁻¹
same,R1 0.31 mM Gd-DTPA,[3]; ethanol 16.1 %,4.7191 mM⁻¹ s⁻¹
same,R1 0.31 mM Gd-DTPA,[3]; ethanol 27.8 %,5.0021 mM⁻¹ s⁻¹
same,R1 0.31 mM Gd-DTPA,[3]; ethanol 36.6 %,4.9347 mM⁻¹ s⁻¹
same,R1 0.31 mM Gd-DTPA,[3]; ethanol 43.5 %,4.7997 mM⁻¹ s⁻¹
same,R1 0.31 mM Gd-DTPA,[3]; ethanol 49.0 %,4.4623 mM⁻¹ s⁻¹
same,AUC-conc. from 0 to 10 minutes,[4],3.5 mM·min
CN(C)CCCN1c2ccccc2Sc2ccc(Cl)cc21 [chloropromazine],Ka,[5],35.4×10^5
